Values quoted from earlier work in US9233112B2, “Pharmaceutical compositions of cefixime” (LUPIN LIMITED, priority 2006, dated 2016).

Solubility in water: poorly soluble in water
Structure (SMILES): C=CC1=C(C(=O)O)N2C(=O)[C@@H](NC(=O)/C(=N\OCC(=O)O)c3csc(N)n3)[C@H]2SC1 [Cefixime]
